Source: patent US12065436B2, “Cardiac sarcomere inhibitors” (Cytokinetics, Inc., priority 2018, dated 2024)
Where two headings read alike, the source gives them in different places.

Columns and labels:
[1] = biological target: bovine cardiac myofibrils (full-length cardiac myosin ATPase in the native sarcomere) (Bos taurus (Bovine), UniProt Q9BE39); test: Skinned bovine cardiac myofibril ATPase assay (PK/LDH-coupled); type: biochemical; settings: Ca2+ activating to 75% of maximal rate; for CDMF75 IC15: concentration giving 15% inhibition; for IC50: read-out: CDMF75 IC50
How it was run: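 Inhibition of steady-state ATPase read at 340 nm through a PK/LDH-coupled NADH system (0.5 mM NADH, 1.5 mM PEP). Detergent-skinned bovine cardiac myofibrils, 1 mg/mL, were tested at pH 6.8 in PIPES/MgCl2 with 50 μM ATP and calcium adjusted to give pCa50 or pCa75 activation.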

[2] = system: rat cardiac contractility (left ventricle fractional shortening); test: Echocardiography of acute effect on rat cardiac contractility, oral gavage; type: in vivo, Sprague Dawley rats; settings: for inhibition in vivo at 6 mg/kg / IC50: Rattus norvegicus; for inhibition in vivo at 6 mg/kg: oral gavage; for IC50 / IC10: oral dosing, estimated; for IC50: plasma concentration at which fractional shortening is 50% of pre-dose baseline; for IC10: plasma concentration at which
Description: Assessment of in vivo cardiac function by echocardiography was performed in male Sprague Dawley rats under isoflurane (1-3%) anesthesia. 2-D M-mode images of the left ventricle were acquired in the parasternal long-axis view before, during, and after administration of compounds by continuous IV infusion or oral gavage. In vivo fractional shortening was determined by M-mode image analysis with the following calculation: ((End diastolic diameter−end systolic diameter)/end diastolic diameter×100). For continuous IV infusion experiments, three pre-dose baseline M-mode images were taken at 1 minute intervals prior to infusion of compound. Compounds were formulated in 50% Propylene Glycol (PG): 16% Captisol: 10% dimethylacetamide (DMA) and delivered via a jugular vein catheter at the rate of 1 mL/kg/h. During infusion, M-mode images were taken at 5 minute intervals. The infusion stopped when fractional shortening reached up to a 60% reduction from baseline. Blood samples were taken to determine the plasma concentration of the compounds. Data was reported as an estimated IC50 value, which is the concentration at which fractional shortening is 50% of the pre-dose baseline contractility.
For oral dosing studies, three pre-dose baseline M-Mode images were taken at 1 minute intervals prior to compound administration. Compounds were formulated in a 0.5% hydroxypropyl methylcellulose 2910 (HPMC 2910): 0.1% Tween 80 suspension and delivered as a single dose (5 mL/kg) by oral gavage. Rats were lightly anesthetized for M-Mode echocardiography measurements at select time points over a 24 hour period. Different dose levels were evaluated for each compound. The compound effect on cardiac fractional shortening at the highest dose evaluated is presented in Table D as a percent reduction of baseline fractional shortening (=100%).
Concurrent with echocardiography measurements, blood samples were taken to determine the corresponding compound plasma concentration.

[3] = 1 h, 1-2 h post dose, read-out: FS (% reduction from baseline) at 1-2 h post dose (Mean ± S.D.)
[4] = 4 h post dose, read-out: FS (% reduction from baseline) at 4 h post dose (Mean ± S.D.)

Chain of bovine cardiac myofibrils (full-length cardiac myosin ATPase in the native sarcomere) (Q9BE39 whole entry): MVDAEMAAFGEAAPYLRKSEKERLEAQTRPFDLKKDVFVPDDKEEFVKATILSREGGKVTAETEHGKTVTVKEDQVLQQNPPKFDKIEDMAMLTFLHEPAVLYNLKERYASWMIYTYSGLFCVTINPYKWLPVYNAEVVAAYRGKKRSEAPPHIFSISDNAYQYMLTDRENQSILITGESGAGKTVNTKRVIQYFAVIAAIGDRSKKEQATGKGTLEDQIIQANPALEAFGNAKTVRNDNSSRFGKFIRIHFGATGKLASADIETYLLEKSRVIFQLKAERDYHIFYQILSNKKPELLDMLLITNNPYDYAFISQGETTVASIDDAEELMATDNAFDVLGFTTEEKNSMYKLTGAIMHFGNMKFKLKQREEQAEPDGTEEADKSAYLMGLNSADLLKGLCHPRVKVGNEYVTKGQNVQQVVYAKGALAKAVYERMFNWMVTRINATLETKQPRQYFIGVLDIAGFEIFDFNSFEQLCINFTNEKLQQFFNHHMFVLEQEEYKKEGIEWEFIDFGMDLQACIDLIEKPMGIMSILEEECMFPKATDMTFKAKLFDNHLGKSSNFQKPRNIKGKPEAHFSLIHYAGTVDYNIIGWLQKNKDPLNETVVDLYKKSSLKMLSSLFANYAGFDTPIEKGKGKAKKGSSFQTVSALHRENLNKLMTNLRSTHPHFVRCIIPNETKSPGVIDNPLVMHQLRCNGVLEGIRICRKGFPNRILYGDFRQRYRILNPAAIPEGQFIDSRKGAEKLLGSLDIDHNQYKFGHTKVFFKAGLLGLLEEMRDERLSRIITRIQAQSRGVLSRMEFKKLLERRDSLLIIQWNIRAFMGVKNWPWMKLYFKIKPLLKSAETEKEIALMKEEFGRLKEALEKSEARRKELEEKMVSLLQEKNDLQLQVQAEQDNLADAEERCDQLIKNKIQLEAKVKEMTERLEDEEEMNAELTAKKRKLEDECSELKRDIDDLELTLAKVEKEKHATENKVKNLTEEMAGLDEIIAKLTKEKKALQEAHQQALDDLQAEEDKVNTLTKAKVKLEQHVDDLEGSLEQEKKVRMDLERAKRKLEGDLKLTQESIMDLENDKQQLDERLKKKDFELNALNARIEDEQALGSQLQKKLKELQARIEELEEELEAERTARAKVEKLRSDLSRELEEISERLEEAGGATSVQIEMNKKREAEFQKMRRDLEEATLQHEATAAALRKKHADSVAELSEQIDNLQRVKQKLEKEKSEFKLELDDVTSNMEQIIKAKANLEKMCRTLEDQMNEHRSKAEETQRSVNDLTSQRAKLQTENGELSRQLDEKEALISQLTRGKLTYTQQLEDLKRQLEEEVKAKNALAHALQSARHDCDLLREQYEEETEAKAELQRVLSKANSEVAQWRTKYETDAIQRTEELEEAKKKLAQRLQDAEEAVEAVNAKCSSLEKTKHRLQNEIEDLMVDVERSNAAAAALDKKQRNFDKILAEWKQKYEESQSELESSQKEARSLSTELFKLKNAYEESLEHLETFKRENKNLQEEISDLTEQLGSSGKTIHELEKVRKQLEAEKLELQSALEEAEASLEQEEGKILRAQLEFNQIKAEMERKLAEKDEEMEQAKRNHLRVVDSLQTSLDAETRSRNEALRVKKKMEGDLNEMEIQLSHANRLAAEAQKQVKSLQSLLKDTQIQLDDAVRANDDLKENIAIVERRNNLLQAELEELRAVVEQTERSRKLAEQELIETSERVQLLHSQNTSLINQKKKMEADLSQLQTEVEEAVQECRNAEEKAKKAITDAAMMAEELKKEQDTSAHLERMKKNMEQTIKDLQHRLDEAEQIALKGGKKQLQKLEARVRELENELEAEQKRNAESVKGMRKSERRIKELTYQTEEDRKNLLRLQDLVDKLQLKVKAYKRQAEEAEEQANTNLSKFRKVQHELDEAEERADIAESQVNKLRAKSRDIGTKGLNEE
Chain of bovine cardiac myofibrils (full-length cardiac myosin ATPase in the native sarcomere) (P85100 whole entry partner): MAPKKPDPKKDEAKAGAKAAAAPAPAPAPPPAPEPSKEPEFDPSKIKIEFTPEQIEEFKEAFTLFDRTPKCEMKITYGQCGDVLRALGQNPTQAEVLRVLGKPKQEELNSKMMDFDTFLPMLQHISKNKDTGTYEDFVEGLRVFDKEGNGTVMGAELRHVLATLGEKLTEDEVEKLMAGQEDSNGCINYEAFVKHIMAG
Chain of bovine cardiac myofibrils (full-length cardiac myosin ATPase in the native sarcomere) (Q3SZE5 whole entry partner): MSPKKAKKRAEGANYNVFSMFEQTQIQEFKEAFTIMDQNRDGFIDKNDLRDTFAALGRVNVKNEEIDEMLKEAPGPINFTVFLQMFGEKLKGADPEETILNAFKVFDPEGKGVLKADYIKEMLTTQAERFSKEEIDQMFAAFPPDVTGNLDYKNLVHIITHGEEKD

Row | SMILES | CDMF75 IC15 [1] | IC50 [1] | inhibition in vivo at 6 mg/kg [2, 3] | IC50 [2] | inhibition in vivo at 6 mg/kg [2, 4] | IC10 [2]
1 | CCc1nc(-c2ccc3c(c2)CC[C@H]3NC(=O)c2nnc(C)o2)no1 [Compound 617, (R)-N-(5-(5-ethyl-1,2,4-oxadiazol-3-yl)-2,3-dihydro-1H-inden-1-yl)-5-methyl-1,3,4-oxadiazole-2-carboxamide] | 0.3 µM | 1.2 µM | 64 ± 4% | 1.2 µM | 37 ± 7% | 0.3 µM
2 | O=C(N[C@@H]1CCc2cc(-c3noc(C4CC4)n3)ccc21)c1cn[nH]c1 [Compound 489, (R)-N-(5-(5-cyclopropyl-1,2,4-oxadiazol-3-yl)-2,3-dihydro-1H-inden-1-yl)-1H-pyrazole-4-carboxamide] | 0.6 µM | 2.2 µM | 65 ± 6% | 2.4 µM | 35 ± 6% | 0.7 µM
3 | COCc1nc(-c2ccc3c(c2)CC[C@H]3NC(=O)c2cc(C)on2)no1 [Compound 690, (R)-N-(5-(5-(methoxymethyl)-1,2,4-oxadiazol-3-yl)-2,3-dihydro-1H-inden-1-yl)-5-methylisoxazole-3-carboxamide] | 4.4 µM | 21.3 µM | – | – | – | –
4 | CCc1nc(-c2ccc3c(c2)CC[C@H]3NC(=O)c2cnn(CC3(C)COC3)c2)no1 [Compound 507, (R)-N-(5-(5-ethyl-1,2,4-oxadiazol-3-yl)-2,3-dihydro-1H-inden-1-yl)-1-((3-methyloxetan-3-yl)methyl)-1H-pyrazole-4-carboxamide] | 32.6 µM | 39.2 µM | – | – | – | –
5 | Cc1nc(-c2ccc3c(c2)CC[C@H]3NC(=O)c2ccc3[nH]c(=O)[nH]c3c2)no1 [Compound 125, (R)-N-(5-(5-methyl-1,2,4-oxadiazol-3-yl)-2,3-dihydro-1H-inden-1-yl)-2-oxo-2,3-dihydro-1H-benzo[d]imidazole-5-carboxamide] | 1.6 µM | 6.2 µM | – | – | – | –
6 | Cc1noc(-c2ccc3c(c2)OC[C@H]3NC(=O)c2cnn(C)c2)n1 [Compound 313, (S)-1-methyl-N-(6-(3-methyl-1,2,4-oxadiazol-5-yl)-2,3-dihydrobenzofuran-3-yl)-1H-pyrazole-4-carboxamide] | 1.6 µM | 6.5 µM | – | – | – | –
7 | Cc1noc(-c2ccc3c(c2)CC[C@H]3NC(=O)c2cnc(C)o2)n1 [Compound 202, (R)-2-methyl-N-(5-(3-methyl-1,2,4-oxadiazol-5-yl)-2,3-dihydro-1H-inden-1-yl)oxazole-5-carboxamide] | 2.6 µM | 10.5 µM | – | – | – | –
8 | C[C@@H](O)Cn1cc(C(=O)N[C@@H]2CCc3cc(-c4noc(C5CC5)n4)ccc32)cn1 [Compound 576, N-((R)-5-(5-cyclopropyl-1,2,4-oxadiazol-3-yl)-2,3-dihydro-1H-inden-1-yl)-1-((R)-2-hydroxypropyl)-1H-pyrazole-4-carboxamide] | 3.5 µM | 15.2 µM | – | – | – | –
9 | Cn1nnc(C(=O)N[C@@H]2CCc3cc(-c4noc(C5CCC5)n4)ccc32)n1 [Compound 143, (R)—N-(5-(5-cyclobutyl-1,2,4-oxadiazol-3-yl)-2,3-dihydro-1H-inden-1-yl)-2-methyl-2H-tetrazole-5-carboxamide] | 0.3 µM | 1 µM | – | – | – | –
10 | CCc1nc(-c2ccc3c(c2)OCC[C@H]3NC(=O)c2cnn(C)c2)no1 [Compound 535, (R)-N-(7-(5-ethyl-1,2,4-oxadiazol-3-yl)chroman-4-yl)-1-methyl-1H-pyrazole-4-carboxamide] | 1.0 µM | 5.8 µM | – | – | – | –
11 | CCc1nc(-c2ccc3c(c2)CC[C@H]3NC(=O)c2cnn(CCCO)c2C)no1 [Compound 611, (R)-N-(5-(5-ethyl-1,2,4-oxadiazol-3-yl)-2,3-dihydro-1H-inden-1-yl)-1-(3-hydroxypropyl)-5-methyl-1H-pyrazole-4-carboxamide] | 0.7 µM | 2.5 µM | – | – | – | –
12 | O=C(NC1CCc2cc(-c3noc(C(F)F)n3)ccc21)C(F)F (centres unmarked) [Compound 1, N-(5-(5-(difluoromethyl)-1,2,4-oxadiazol-3-yl)-2,3-dihydro-1H-inden-1-yl)-2,2-difluoroacetamide] | 4.5 µM | 21.7 µM | – | – | – | –
13 | Cn1cc(C(=O)N[C@@H]2CCc3cc(-c4noc(CCO)n4)ccc32)cn1 [Compound 552, N-{(1R)-5-[5-(2-hydroxyethyl)(1,2,4-oxadiazol-3-yl)]indanyl}(1-methylpyrazol-4-yl)carboxamide] | 13.7 µM | 39.2 µM | – | – | – | –
14 | O=C(N[C@@H]1CCc2cc(-c3noc(C(F)F)n3)ccc21)c1ccc(=O)n(CCO)c1 [Compound 656, (R)-N-(5-(5-(difluoromethyl)-1,2,4-oxadiazol-3-yl)-2,3-dihydro-1H-inden-1-yl)-1-(2-hydroxyethyl)-6-oxo-1,6-dihydropyridine-3-carboxamide] | 1.9 µM | 8.1 µM | – | – | – | –
15 | Cc1nc(-c2ccc3c(c2)CC[C@H]3NC(=O)c2cnc(C)o2)no1 [Compound 48, (R)-2-methyl-N-(5-(5-methyl-1,2,4-oxadiazol-3-yl)-2,3-dihydro-1H-inden-1-yl)oxazole-5-carboxamide] | 1.4 µM | 4.9 µM | – | – | – | –
16 | Cn1nnc(C(=O)N[C@@H]2CCc3cc(-c4nc(C5CC5)no4)ccc32)n1 [Compound 260, (R)-N-(5-(3-cyclopropyl-1,2,4-oxadiazol-5-yl)-2,3-dihydro-1H-inden-1-yl)-2-methyl-2H-tetrazole-5-carboxamide] | 0.4 µM | 1.4 µM | – | – | – | –
17 | O=C(N[C@@H]1CCc2cc(-c3noc(C(F)F)n3)ccc21)C1CCCC1 [Compound 287, (R)-N-(5-(5-(difluoromethyl)-1,2,4-oxadiazol-3-yl)-2,3-dihydro-1H-inden-1-yl)cyclopentanecarboxamide] | 39.2 µM | > 39.2 µM | – | – | – | –
18 | Cc1cc(C(=O)NC2CCc3cc(-c4cc(C)on4)ccc32)ccn1 (centres unmarked) [Compound 137, 2-methyl-N-(5-(5-methylisoxazol-3-yl)-2,3-dihydro-1H-inden-1-yl)isonicotinamide] | 1.2 µM | 4.9 µM | – | – | – | –
19 | Cc1nn(C)cc1C(=O)NC1CCc2cc(-c3noc(C(C)C)n3)ccc21 (centres unmarked) [Compound 75, N-(5-(5-isopropyl-1,2,4-oxadiazol-3-yl)-2,3-dihydro-1H-inden-1-yl)-1,3-dimethyl-1H-pyrazole-4-carboxamide] | 0.9 µM | 3.1 µM | – | – | – | –
20 | CCc1nc(-c2ccc3c(c2)OC[C@H]3NC(=O)N(C)CCO)no1 [Compound 746, (S)-3-(6-(5-ethyl-1,2,4-oxadiazol-3-yl)-2,3-dihydrobenzofuran-3-yl)-1-(2-hydroxyethyl)-1-methylurea] | 4.6 µM | 21.3 µM | – | – | – | –
21 | CCc1nc(-c2ccc3c(c2)CC[C@H]3NC(=O)c2csc(C)n2)no1 [Compound 590, (R)-N-(5-(5-ethyl-1,2,4-oxadiazol-3-yl)-2,3-dihydro-1H-inden-1-yl)-2-methylthiazole-4-carboxamide] | 1.4 µM | 6.8 µM | – | – | – | –
22 | Cc1nc(-c2ccc3c(c2)CC[C@H]3NC(=O)c2cccc([C@@H](C)O)c2)no1 [Compound 726, 3-((R)-1-hydroxyethyl)-N-((R)-5-(5-methyl-1,2,4-oxadiazol-3-yl)-2,3-dihydro-1H-inden-1-yl)benzamide] | 1.2 µM | 6 µM | – | – | – | –
23 | Cn1cc(C(=O)N[C@@H]2CCc3cc(-c4noc(C5CC5)n4)ccc32)cn1 [Compound 185, (R)-N-(5-(5-cyclopropyl-1,2,4-oxadiazol-3-yl)-2,3-dihydro-1H-inden-1-yl)-1-methyl-1H-pyrazole-4-carboxamide] | 0.8 µM | 2.7 µM | – | – | – | –
24 | Cc1cc(-c2ccc3c(c2)CC[C@H]3NC(=O)c2ccnn2C)no1 [Compound 403, (R)-1-methyl-N-(5-(5-methylisoxazol-3-yl)-2,3-dihydro-1H-inden-1-yl)-1H-pyrazole-5-carboxamide] | 0.4 µM | 1.2 µM | – | – | – | –
